Laboratory results: publication PMC11630551, “In silico screening of protein-binding peptides with an application to developing peptide inhibitors against antibiotic resistance” (PNAS Nexus, 2024)
Entries after “also recorded” stand apart in the source; their conditions may differ.

Biological target: T1, TEM-1 β-lactamase (Escherichia coli, UniProt P62593)
T1 construct: host or cells: E. coli BL21 (DE3)
Experiment: not given
Type: biochemical
Settings: not given

T1 sequence (P62593 24-286 limits assumed): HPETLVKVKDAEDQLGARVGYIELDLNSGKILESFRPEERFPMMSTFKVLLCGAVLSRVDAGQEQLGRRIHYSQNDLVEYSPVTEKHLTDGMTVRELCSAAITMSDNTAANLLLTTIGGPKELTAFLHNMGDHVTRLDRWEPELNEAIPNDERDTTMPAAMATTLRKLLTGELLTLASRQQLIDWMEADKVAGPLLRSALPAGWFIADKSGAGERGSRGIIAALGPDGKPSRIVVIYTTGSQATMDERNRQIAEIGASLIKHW

| Sequence | change of β-lactamase activity of TEM-1 at peptide screening concentration |
| --- | --- |
| AKYFEQASYG [TF6] | increased the β-lactamase activity; also recorded: did not exhibit significant inhibition |
| ARDATCRRWG [TF3] | increased the β-lactamase activity; also recorded: did not exhibit significant inhibition |
| ASRAEVDAAAKGAA [TF8] | did not exhibit significant inhibition |
| EYGDAWHDAG [TF4] | did not exhibit significant inhibition |
| RDSVGAASVN [TF9] | did not exhibit significant inhibition |

Test system: not listed separately
Experiment: Solubility of synthesized peptides
Settings: excluded from assay experiments

| Sequence | solubility |
| --- | --- |
| ESYHGMLACVIAG [TF10] | poor solubility |
